Test results published in US20220096516A1, “OLIGONUCLEOTIDE MOLECULE AND APPLICATION THEREOF IN TUMOR THERAPY” (Ractigen Therapeutics, priority 2019, published 2022).
d = 2'-deoxy (DNA); r = 2'-OH (RNA)

Experiments:
Format in all cases: cell-based, human
[1] = system: bladder cancer cell line T24; assay: Cell viability by CCK-8 method, T24; conditions: T24, 10 nM, 72 h, FIG. 7B
Procedure: (§1) 8 LHPP promoter-targeting saRNAs were individually transfected into cancer cells at 10 nM for 72 h. In FIG. 7A, the expression level of LHPP mRNA was analyzed by RT-qPCR. In FIG. 7B, cell viability in the saRNA treatment group was evaluated by the CCK-8 method and recorded as a percentage relative to the viability of cells in a control (Mock) treatment group.
(§2) The cell viability was detected by the following CCK-8 method: the cCells were plated into a 96-well plate at 3-5×10^3 cells/well, cultured overnight, and transfected with the oligonucleotide duplexes. After 72 hour of transfection, 10 uL of CCK-8 solution (Dojindo Molecular Technologies) was added into each well. After 1 hour of incubation at 37° C., a microplate reader was used to measure absorbances at 450 nm.
(§3) In order to further evaluate the effect of LHPP saRNAs in inducing the mRNA expression of the LHPP gene and inhibiting the proliferation of cancer cells, eight screened saRNAs (RAG7-132, RAG7-133, RAG7-139, RAG7-177, RAG7-178, RAG7-694, RAG7-707 and RAG7-892) each were transfected into the liver cancer cell lines Huh7 (Medical Cell Resource Center, Tohoku University, Japan), HepG2 (ATCC), Hep3B (ATCC), Li-7 (Medical Cell Resource Center, Tohoku University, Japan) and SK-HEP-1 (ATCC), a lung cancer cell line A549 (ATCC), a bladder cancer cell line T24 (ATCC), a prostatic cancer cell line PC3 (ATCC), and a glioma cell line U87MG (ATCC). The mRNA expression and cell viability of the transfected cells were measured.

SK-HEP-1 cells = assay: Cell viability by CCK-8 method, SK-HEP-1; conditions: SK-HEP-1, 10 nM, 72 h, FIG. 6B
Procedure: as §1, with “into liver” for “into”, “6A,” for “7A,”, “6B,” for “7B,”
as §2, with “nm. […]” for “nm.”

HepG2 cells = assay: Cell viability by CCK-8 method, HepG2; conditions: HepG2, 10 nM, 72 h, FIG. 6B
Procedure: as §1, with “into liver” for “into”, “6A,” for “7A,”, “6B,” for “7B,”
as §2, with “nm. […]” for “nm.”

[2] = system: lung cancer cell line A549; assay: Cell viability by CCK-8 method, A549; conditions: A549, 10 nM, 72 h, FIG. 7B
Procedure: as §1, §2, §3

LHPP gene [3] = assay: High-throughput screening of saRNAs targeting LHPP promoter: LHPP mRNA by one-step RT-qPCR in Huh7 cells; conditions: 10 nM saRNA, 72 hours, relative to control (Mock)
Summary of the method: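 LHPP transcript level relative to mock, normalised to the geometric mean of the HPRT1 and TBP reference genes, measured by one-step RT-qPCR on crude lysates. Huh7 cells had been RNAiMax-transfected with each saRNA at 10 nM for 72 h.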

[4] = system: prostatic cancer cell line PC3; assay: Cell viability by CCK-8 method, PC3; conditions: PC3, 10 nM, 72 h, FIG. 7B
Procedure: as §1, §2, §3

Hep3B cells = assay: Cell viability by CCK-8 method, Hep3B; conditions: 10 nM, 72 h, FIG. 6B
Procedure: as §1, with “into liver” for “into”, “6A,” for “7A,”, “6B,” for “7B,”
as §2, with “nm. […]” for “nm.”

Huh7 cells = assay: Cell viability by CCK-8 method, Huh7; conditions: Huh7, 10 nM, 72 h, FIG. 6B
Procedure: The 290 saRNAs targeting the LHPP promoter were individually transfected into Huh7 cells, and 72 hour later, one-step RT-qPCR was employed to analyze the expression levels of LHPP mRNA and cell viability was detected by the CCK-8 method.
as §2, §3

LHPP gene [5] = assay: LHPP mRNA expression by RT-qPCR in cancer cell lines; conditions: 72 h
Procedure: as §1, with “into liver” for “into”, “6A,” for “7A,”, “6B,” for “7B,”
as §1, §3

glioma cell line U87MG = assay: Cell viability by CCK-8 method, U87MG; conditions: 10 nM, 72 h, FIG. 7B
Procedure: as §1, §2, §3

Row | Substance | cell proliferation (cell viability, CCK-8) [2] | Fold of changes in relative LHPP mRNA expression level (LHPP gene [3]) [fold] | Fold of changes in relative LHPP mRNA expression level (log2) (LHPP gene [3]) | expression of LHPP gene (mRNA) (LHPP gene [5]; A549, 10 nM, FIG. 7A) | also measured
1 | RAG7-694: saRNA duplex; sense AGGUCCUAUGCAUCCUCAUTT (SEQ ID NO: 3), antisense AUGAGGAUGCAUAGGACCUTT (SEQ ID NO: 167) (sugars from the 5' end r19 d2, backbone not given here) | inhibited cell proliferation | 1.88 | 0.91 | induced the expression of LHPP gene to different degrees | cell proliferation (cell viability, CCK-8) [1]: inhibited cell proliferation; cell proliferation (cell viability, CCK-8) (SK-HEP-1 cells): inhibited cell proliferation; cell proliferation (cell viability, CCK-8) (HepG2 cells): inhibited cell proliferation; cell proliferation (cell viability, CCK-8) [4]: inhibited cell proliferation; cell proliferation (cell viability, CCK-8) (Hep3B cells): inhibited cell proliferation; cell proliferation (cell viability, CCK-8) (Huh7 cells): inhibited cell proliferation; expression of LHPP gene (mRNA) (LHPP gene [5]; Hep3B, 10 nM, FIG. 6A): induced the expression of LHPP gene to different degrees; expression of LHPP gene (mRNA) (LHPP gene [5]; HepG2, 10 nM, FIG. 6A): induced the expression of LHPP gene to different degrees; expression of LHPP gene (mRNA) (LHPP gene [5]; Huh7, 10 nM, FIG. 6A): induced the expression of LHPP gene to different degrees; expression of LHPP gene (mRNA) (LHPP gene [5]; PC3, 10 nM, FIG. 7A): induced the expression of LHPP gene to different degrees; expression of LHPP gene (mRNA) (LHPP gene [5]; SK-HEP-1, 10 nM, FIG. 6A): induced the expression of LHPP gene to different degrees; expression of LHPP gene (mRNA) (LHPP gene [5]; T24, 10 nM, FIG. 7A): induced the expression of LHPP gene to different degrees
2 | RAG7-178: saRNA duplex; sense AAUUUGCCUUUGACCUUUCTT (SEQ ID NO: 5), antisense GAAAGGUCAAAGGCAAAUUTT (SEQ ID NO: 169) (sugars from the 5' end r19 d2, backbone not given here) | inhibited cell proliferation | 1.76 | 0.82 | induced the expression of LHPP gene to different degrees | cell proliferation (cell viability, CCK-8) [4]: inhibited cell proliferation; cell proliferation (cell viability, CCK-8) (glioma cell line U87MG): inhibited cell proliferation; expression of LHPP gene (mRNA) (LHPP gene [5]; PC3, 10 nM, FIG. 7A): induced the expression of LHPP gene to different degrees; expression of LHPP gene (mRNA) (LHPP gene [5]; U87MG, 10 nM, FIG. 7A): induced the expression of LHPP gene to different degrees
3 | RAG7-177: saRNA duplex; sense AUUUGCCUUUGACCUUUCUTT (SEQ ID NO: 6), antisense AGAAAGGUCAAAGGCAAAUTT (SEQ ID NO: 170) (sugars from the 5' end r19 d2, backbone not given here) | inhibited cell proliferation | 1.74 | 0.80 | induced the expression of LHPP gene to different degrees | cell proliferation (cell viability, CCK-8) [1]: inhibited cell proliferation; cell proliferation (cell viability, CCK-8) (glioma cell line U87MG): inhibited cell proliferation; expression of LHPP gene (mRNA) (LHPP gene [5]; T24, 10 nM, FIG. 7A): induced the expression of LHPP gene to different degrees; expression of LHPP gene (mRNA) (LHPP gene [5]; U87MG, 10 nM, FIG. 7A): induced the expression of LHPP gene to different degrees
4 | RAG7-821: saRNA duplex; sense ACUCCUCCCUUUUAAUAUCTT (SEQ ID NO: 89), antisense GAUAUUAAAAGGGAGGAGUTT (SEQ ID NO: 253) (sugars from the 5' end r19 d2, backbone not given here) |  | 1.25 | 0.32 |  | 
5 | RAG7-704: saRNA duplex; sense UUCUCAGCCCAGGUCCUAUTT (SEQ ID NO: 112), antisense AUAGGACCUGGGCUGAGAATT (SEQ ID NO: 276) (sugars from the 5' end r19 d2, backbone not given here) |  | 1.19 | 0.26 |  | 
6 | RAG7-120: saRNA duplex; sense UGAUCUCCUGGGAAGAAAGTT (SEQ ID NO: 141), antisense CUUUCUUCCCAGGAGAUCATT (SEQ ID NO: 305) (sugars from the 5' end r19 d2, backbone not given here) |  | 1.14 | 0.19 |  | 
7 | RAG7-846: saRNA duplex; sense AAGGUUCCGAGGGGCCAUUTT (SEQ ID NO: 11), antisense AAUGGCCCCUCGGAACCUUTT (SEQ ID NO: 175) (sugars from the 5' end r19 d2, backbone not given here) |  | 1.68 | 0.75 |  | 
8 | RAG7-142: saRNA duplex; sense GCUUUUCCUGCUCUUUGUCTT (SEQ ID NO: 164), antisense GACAAAGAGCAGGAAAAGCTT (SEQ ID NO: 328) (sugars from the 5' end r19 d2, backbone not given here) |  | 1.10 | 0.14 |  | 
9 | RAG7-93: saRNA duplex; sense AAGGACACCGUUUCAGGGGTT (SEQ ID NO: 144), antisense CCCCUGAAACGGUGUCCUUTT (SEQ ID NO: 308) (sugars from the 5' end r19 d2, backbone not given here) |  | 1.14 | 0.19 |  | 
